The target in assay [1] is Phosphatidylinositol 4,5-bisphosphate 3-kinase catalytic subunit gamma isoform (Homo sapiens, UniProt P48736). Kind of assay: Scintillation Proximity Assay. The text has this:
PI3K-γ: [γ-33P]ATP (10 mCi/mL) and Wheat Germ Agglutinin (WGA) YSi SPA Scintillation Beads was purchased from PerkinElmer (Waltham, Mass.). Lipid kinase substrate, D-myo-Phosphatidylinositol 4,5-bisphosphate (PtdIns(4,5)P2)D (+)-sn-1,2-di-O-octanoylglyceryl, 3-O-phospho linked (PIP2), CAS 204858-53-7, was purchased from Echelon Biosciences (Salt Lake City, Utah). PI3Kγ (p110γ) Recombinant Human Protein was purchased from Life technology (Grand Island, N.Y.). ATP, MgCl2, DTT, EDTA, MOPS and CHAPS were purchased from SigmaAldrich (St. Louis, Mo.).The kinase reaction was conducted in polystyrene 384-well Greiner Bio-one white plate from Thermo Fisher Scientific in a final volume of 25 μL. Inhibitors were first diluted serially in DMSO and added to the plate wells before the addition of other reaction components. The final concentration of DMSO in the assay was 2%. The PI3Kγ assay was carried out at room temperature in 20 mM MOPS, pH 6.7, 10 mM MgCl2, 5 mM DTT and CHAPS 0.03%. Reactions were initiated by the addition of ATP, the final reaction mixture consisted of 20 μM PIP2, 2 μM ATP, 0.5 μCi [γ-33P] ATP, 13 nM PI3Kγ. Reactions were incubated for 120 min and terminated by the addition of 40 μL SPA beads suspended in quench buffer: 163 mM potassium phosphate pH 7.8, 20% glycerol, 25 mM EDTA. The final concentration of SPA beads is 1.0 mg/mL. After the plate sealing, plates were shaken overnight at room temperature and centrifuged at 1500 rpm for 10 min, the radioactivity of the product was determined by scintillation counting on Topcount (Perkin-Elmer).
Background: In a scintillation proximity assay essentially only radioactivity close to the scintillant gives light.

Assay [2] addresses T1, Phosphatidylinositol 4,5-bisphosphate 3-kinase catalytic subunit delta isoform (Homo sapiens, UniProt O00329).
T1 sequence (O00329 whole entry): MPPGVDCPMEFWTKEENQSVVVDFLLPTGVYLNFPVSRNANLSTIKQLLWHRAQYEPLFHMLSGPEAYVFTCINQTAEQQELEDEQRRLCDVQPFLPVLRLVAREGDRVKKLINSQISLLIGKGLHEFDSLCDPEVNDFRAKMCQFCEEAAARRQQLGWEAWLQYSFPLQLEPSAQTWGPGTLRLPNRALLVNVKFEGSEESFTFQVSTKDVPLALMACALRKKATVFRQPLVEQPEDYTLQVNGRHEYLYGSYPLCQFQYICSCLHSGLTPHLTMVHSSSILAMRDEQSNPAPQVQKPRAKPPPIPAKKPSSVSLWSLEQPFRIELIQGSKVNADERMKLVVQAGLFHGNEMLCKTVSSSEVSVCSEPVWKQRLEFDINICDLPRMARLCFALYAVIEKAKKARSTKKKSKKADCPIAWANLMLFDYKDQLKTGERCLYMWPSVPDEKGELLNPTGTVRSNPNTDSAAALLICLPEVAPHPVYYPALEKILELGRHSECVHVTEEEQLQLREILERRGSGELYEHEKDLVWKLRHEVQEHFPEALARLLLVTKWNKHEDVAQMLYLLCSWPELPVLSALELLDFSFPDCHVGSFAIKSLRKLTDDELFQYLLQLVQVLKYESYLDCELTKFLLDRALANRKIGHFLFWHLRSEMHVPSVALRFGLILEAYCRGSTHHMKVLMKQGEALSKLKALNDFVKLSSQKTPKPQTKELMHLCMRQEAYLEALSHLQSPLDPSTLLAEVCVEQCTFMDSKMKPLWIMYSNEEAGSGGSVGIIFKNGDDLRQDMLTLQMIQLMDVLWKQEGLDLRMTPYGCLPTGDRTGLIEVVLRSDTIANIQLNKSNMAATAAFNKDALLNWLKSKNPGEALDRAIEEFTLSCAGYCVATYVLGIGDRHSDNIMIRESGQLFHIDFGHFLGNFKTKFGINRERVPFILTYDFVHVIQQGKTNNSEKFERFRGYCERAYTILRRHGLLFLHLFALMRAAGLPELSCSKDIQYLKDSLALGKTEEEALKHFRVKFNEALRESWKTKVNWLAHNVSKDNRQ
Put plainly: Scintillation Proximity Assay. From the text:
PI3Kδ: [γ-33P]ATP (10 mCi/mL) and Wheat Germ Agglutinin (WGA) YSi SPA Scintillation Beads was purchased from PerkinElmer (Waltham, Mass.). Lipid kinase substrate, D-myo-Phosphatidylinositol 4,5-bisphosphate (PtdIns(4,5)P2)D (+)-sn-1,2-di-O-octanoylglyceryl, 3-O-phospho linked (PIP2), CAS 204858-53-7, was purchased from Echelon Biosciences (Salt Lake City, Utah). PI3Kδ (p110δ/p85α) Recombinant Human Protein was purchased from Eurofins. ATP, MgCl2, DTT, EDTA, MOPS and CHAPS were purchased from SigmaAldrich.The kinase reaction was conducted in polystyrene 384-well Greiner Bio-one white plate from Thermo Fisher Scientific in a final volume of 25 μL. Inhibitors were first diluted serially in DMSO and added to the plate wells before the addition of other reaction components. The final concentration of DMSO in the assay was 2%. The PI3Kδ assay was carried out at room temperature in 20 mM MOPS, pH 6.7, 10 mM MgCl2, 5 mM DTT and CHAPS 0.03%. Reactions were initiated by the addition of ATP, the final reaction mixture consisted of 20 μM PIP2, 2 μM ATP, 0.5 μCi [γ-33P] ATP, 3.4 nM PI3Kδ. Reactions were incubated for 120 min and terminated by the addition of 40 μL SPA beads suspended in quench buffer: 163 mM potassium phosphate pH 7.8, 20% glycerol, 25 mM EDTA. The final concentration of SPA beads is 1.0 mg/mL. After the plate sealing, plates were shaken overnight at room temperature and centrifuged at 1500 rpm for 10 min, the radioactivity of the product was determined by scintillation counting on Topcount.

A value given as a limit tells only on which side of the number the result lay.

These results are taken from BindingDB's records for patent US10738057 (Incyte Corporation, 2020).

Chain of Phosphatidylinositol 4,5-bisphosphate 3-kinase catalytic subunit gamma isoform (P48736 whole entry, canonical isoform): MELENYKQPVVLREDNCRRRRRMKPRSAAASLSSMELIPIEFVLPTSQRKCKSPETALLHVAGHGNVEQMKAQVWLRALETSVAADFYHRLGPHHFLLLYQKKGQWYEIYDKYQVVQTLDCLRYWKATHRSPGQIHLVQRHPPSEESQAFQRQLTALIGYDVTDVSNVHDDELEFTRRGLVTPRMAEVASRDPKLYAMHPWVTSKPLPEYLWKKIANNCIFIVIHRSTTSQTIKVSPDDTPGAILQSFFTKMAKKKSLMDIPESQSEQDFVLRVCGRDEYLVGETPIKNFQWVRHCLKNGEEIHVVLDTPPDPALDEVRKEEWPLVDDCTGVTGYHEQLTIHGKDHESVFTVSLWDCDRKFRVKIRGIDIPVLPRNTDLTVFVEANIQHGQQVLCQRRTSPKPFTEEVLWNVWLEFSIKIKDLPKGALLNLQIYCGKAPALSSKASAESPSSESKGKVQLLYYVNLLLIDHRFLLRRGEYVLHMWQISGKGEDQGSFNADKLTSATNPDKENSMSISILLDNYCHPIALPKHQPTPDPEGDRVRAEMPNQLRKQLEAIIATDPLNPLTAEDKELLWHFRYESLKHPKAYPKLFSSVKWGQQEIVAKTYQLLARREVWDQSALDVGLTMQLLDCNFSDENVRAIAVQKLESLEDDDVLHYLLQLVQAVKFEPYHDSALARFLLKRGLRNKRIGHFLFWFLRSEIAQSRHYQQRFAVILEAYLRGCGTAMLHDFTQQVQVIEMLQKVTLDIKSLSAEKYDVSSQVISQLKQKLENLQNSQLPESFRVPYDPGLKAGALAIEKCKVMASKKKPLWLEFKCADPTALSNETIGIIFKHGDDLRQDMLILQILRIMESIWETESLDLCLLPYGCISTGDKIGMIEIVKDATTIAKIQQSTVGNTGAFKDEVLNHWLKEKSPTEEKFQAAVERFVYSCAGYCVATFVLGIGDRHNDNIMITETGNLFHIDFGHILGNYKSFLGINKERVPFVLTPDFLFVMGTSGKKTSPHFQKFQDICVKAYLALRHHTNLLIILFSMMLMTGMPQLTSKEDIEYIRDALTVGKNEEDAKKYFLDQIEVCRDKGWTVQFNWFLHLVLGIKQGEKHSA

The IC50 is the concentration needed to halve the response being measured. A higher IC50 goes with weaker potency. On to `Cc1ccc(C(C)C(F)(F)F)cc1-c1cnc2c(N)nc(-c3cnn(C)c3)cn12` (stereo unspecified) [US10738057, Example 69], for which the IC50 in assay [1] and in assay [2] was less than 100 nM in each case.

Turning to `Cc1ncc(-c2cn3c(-c4cc(C(C)C(F)(F)F)ccc4C)cnc3c(N)n2)s1` (stereo unspecified) [US10738057, Example 70], the IC50 in assay [1] and in assay [2] was less than 100 nM each time.

Take `Cc1ccc(C(C)C(F)(F)F)cc1-c1cnc2c(N)nc(-c3cnco3)cn12` (stereo unspecified) [US10738057, Example 71]: the IC50 in assay [1] and in assay [2] was less than 100 nM throughout.
